Test results reported in PubChem BioAssay (NCI).
Several values for one entry are separate records, joined by “and”; a condition that tells them apart may be missing. Identical values can stand only once.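 Cells were grown in 96-well plates and exposed to each compound for 48 hours at five concentrations; endpoints were interpolated linearly between bracketing concentrations, or set to the highest concentration if not reached. The concentration for 50% growth inhibition is given as GI50. TGI: total growth inhibition.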

Legend:
Test in all cases: NCI anticancer screen, dose series, 48 h
[1] = system: NCI-H23 lung
[2] = system: CAKI-1 renal
[3] = system: UO-31 renal
[4] = system: OVCAR-8 ovarian
[5] = system: HOP-62 NSCLC
[6] = system: RXF 393 renal
[7] = system: SF-295 CNS
[8] = system: MDA-MB-435
[9] = system: NCI-H522 lung
[10] = system: ACHN renal
[11] = system: SNB-75 CNS
[12] = system: SK-MEL-5 melanoma
[13] = system: SW-620 colon
[14] = system: EKVX NSCLC
[15] = system: TK-10 renal
[16] = system: HCT-15 colon
[17] = system: MOLT-4 leukemia
[18] = system: UACC-257 melanoma
[19] = system: DU-145 prostate
[20] = system: NCI-H226 lung
[21] = system: OVCAR-5 ovarian
[22] = system: NCI/ADR-RES ovarian
[23] = system: HS 578T breast
[24] = system: HCT-116 colon
[25] = system: HCC-2998 colon
[26] = system: SNB-19 CNS
[27] = system: CCRF-CEM leukemia
[28] = system: IGROV1 ovarian
[29] = system: COLO 205 colon
[30] = system: MDA-MB-231 breast
[31] = system: SK-MEL-2 melanoma
[32] = system: OVCAR-3 ovarian
[33] = system: KM12 colon
[34] = system: SF-539 CNS
[35] = system: 786-0 renal
[36] = system: SN12C renal
[37] = system: HOP-92 NSCLC
[38] = system: U251 CNS
[39] = system: T-47D breast
[40] = system: MCF7 breast

`COc1cc2cc(C(=O)N3CC(COS(C)(=O)=O)c4ccc(O)cc43)[nH]c2c(OC)c1OC` (stereo unspecified) was tested, and the TGI [1] was 2.86 nM, the GI50 [2] was under 0.1 nM and the TGI [2] was under 0.1 nM. For the same compound, the TGI [3] was under 0.1 nM, the TGI [4] was 149 nM and the TGI [5] was 1.98 nM. The TGI [6] was under 0.1 nM, the TGI [7] was under 0.1 nM and the TGI [8] was 0.212 nM. It also gave a TGI [9] of under 0.1 nM, a TGI [10] of under 0.1 nM and a TGI [11] of 1.49 nM. The TGI [12] was under 0.1 nM, the TGI [13] was 111 nM and 11.8 nM and the TGI [14] was 6.45 nM. The TGI [15] was 14000 nM, the TGI [16] was 0.858 nM and the TGI [17] was 92.4 nM. It also gave a TGI [18] of 4.04 nM, a TGI [19] of 0.845 nM and a TGI [20] of 0.531 nM. For the same compound, the TGI [21] was 42.8 nM, the TGI [22] was 524 nM and the TGI [23] was 0.872 nM. For the same compound, the TGI [24] was 138 nM, the TGI [25] was under 0.1 nM and the TGI [26] was 12 nM. For the same compound, the TGI [27] was over 100000 nM, the TGI [28] was 37.8 nM and the TGI [29] was 1.94 nM. The TGI [30] was 0.328 nM, the TGI [31] was under 0.1 nM and the TGI [32] was 0.616 nM. For the same compound, the TGI [33] was 3.3 nM, the TGI [34] was under 0.1 nM and the TGI [35] was 10.6 nM. The TGI [36] was 16.5 nM, the TGI [37] was 638 nM and the TGI [38] was 137 nM. It also gave a TGI [39] of 41.6 nM and a TGI [40] of 40.2 nM.
